The text below walks through data of publication PMC10610134, “Verubulin (Azixa) Analogues with Increased Saturation: Synthesis, SAR and Encapsulation in Biocompatible Nanocontainers Based on Ca^2+ or Mg^2+ Cross-Linked Alginate” (Pharmaceuticals, 2023).

For test [1], the system named is immortalized lung fibroblast cell line VA13 (WI38 subline 2RA). Briefly: MTT cytotoxicity assay, VA13. The test is classed as cell-based. Particulars: Homo sapiens, VA-13; 64 h treatment, MTT; read-out: IC50, nM VA13. An excerpt: The obtained series of verubulin analogues 2a–r (which also included three by-products isolated in the reactions according to Scheme 2) were initially evaluated for cytotoxicity against commonly used human breast cancer cell line MCF7′ (fast-growth subclone), human lung epithelial carcinoma cell line A549 and etiologically non-cancer immortalized lung fibroblast cell line VA13 (WI38 subline 2RA). Cytotoxicity against immortalized human embryonic kidney cell line HEK293T, characterized by a high growth rate, was also studied regarding cytotoxicity against non-cancerous fast-growth cells. A standard MTT assay was performed; verubulin (1) served as a positive reference. The data obtained are presented in Table 1 (for dose–response curves, see Supplementary Materials).
Human breast cancer cell line MCF7′ and human lung adenocarcinoma cell line A549 were kindly provided by Dr. S. Dmitriev (Lomonosov Moscow State University), immortalized human fibroblast cell line VA13 (WI38 subline 2RA) was kindly provided by Dr. M. Rubtsova (Lomonosov Moscow State University), human embryonic kidney HEK293T cell line was kindly provided by Dr. E. Knyazhanskaya (Lomonosov Moscow State University). MCF7′, VA13, A549 and HEK293T cell lines were maintained in DMEM/F-12 (Thermo Fisher Scientific, Waltham, MA, USA) culture medium containing 10% fetal bovine serum (Thermo Fisher Scientific, Waltham, MA, USA) and 50 μg/mL penicillin and 0.05 mg/mL streptomycin at 37 °C (Thermo Fisher Scientific, Waltham, MA, USA) in 5% CO2. Cells were maintained at 37 °C in a humidified MCO-18AC incubator (Sanyo, Tokyo, Japan) supplied with 5% CO2. Cell cultures were tested for the absence of mycoplasma and validated by STR.
The cytotoxicity of the substances was tested using the 3-(4,5-dimethylthiazol-2-yl)2,5-diphenyl tetrazolium bromide (MTT) assay with some modifications. A total of 2500 cells per well for the MCF7′, HEK293T, A549 cell lines or 4000 cells per well for the VA-13 cell line were plated out in 135 μL of DMEM-F12 media (Gibco, Thermo Fisher Scientific, Waltham, MA, USA) in a 96-well plate and incubated in the 5% CO2 incubator for the first 20 h without treatment. Then, 15.8 μL of media–DMSO solutions of tested substances (final DMSO concentrations in the media were 0.5% or less) was added to the cells (triplicate each) and cells were treated for 64 h with 0.023 mg/L–50 mg/L (eight dilutions) of compounds 2f,n,o,r; 1.14 μg/L–2.5 mg/L (eight dilutions) of compounds 2a,b,d,g,h,k,l,p,q; 57.2 ng/L–125 μg/L (eight dilutions) of compounds 2e,i,j; 22.9 ng/L–50 μg/L (eight dilutions) of compounds 1,2c,m. Doxorubicin was used as a control substance. Then, the MTT reagent (Paneco LLC, Moscow, Russia) was added to cells up to a final concentration of 0.5 g/L (10 × stock solution in PBS was used) and incubated for 2 h at 37 °C in the incubator, under an atmosphere of 5% CO2. Then, the MTT solution was discarded, and 140 μL of DMSO (PharmaMed LLC, Moscow, Russia) was added. The plates were swayed on a shaker (120 rpm) to dissolve the formazan. The absorbance was measured using a microplate reader (VICTOR X5 Light Plate Reader, PerkinElmer, Waltham, MA, USA) at a wavelength of 555 nm (in order to measure formazan concentration). The results were used to construct dose–response graphs and to estimate IC50 values (IC50 is the concentration resulting in half of the maximal cytotoxic effect) with GraphPad Prism V, GraphPadSoftware, Inc., San Diego, CA, USA.
Background: Tetrazolium dyes change colour on reduction, which living cells bring about.

Test [2] deals with microtubules in carcinoma A549 cells. The experiment in a line: Immunofluorescent microscopy of microtubules. The test is classed as cell-based, human. Particulars: 24 h, A549. On the procedure:
Since verubulin is known to stimulate microtubule disassociation, we performed an immunofluorescent microscopy study to determine the response of microtubule dynamics in carcinoma A549 cells to the treatment with representative compounds 2b,c,e. […] Aberrant cell morphology—contraction and rounding (Figure 2A,B) or contraction and elongation (Figure 2C)—was also observed.
A549 cells were seeded on coverslips (treated with poly-l-lysine at a concentration of 33 mg/L for an hour). Compounds were added up to the corresponding concentration after 24 h attachment and growth of the cells. Then, cells were incubated 24 h.
The cells were fixed with methanol (precooled in liquid nitrogen for 20 min), no additional permeabilization was performed. To prevent non-specific binding, cells were incubated with 4% BSA in PBS for one hour. Then, a solution of mouse monoclonal antibodies against alpha-tubulin cross-linked with Alexa 488 fluoroform (Thermo Fisher Scientific, Waltham, MA, USA, 32-2588) at a concentration of 5 μg/mL in 1% BSA solution in PBS was added to the cells, and the slides were incubated at +5 °C in a water chamber for 24 h. After the end of the incubation time, the cells were washed several times with PBS buffer solution and fixed on a glass slide with Moviol. Next day, cells were imaged with a ZEISS LSM 900 (ZEISS Microscopy, GmbH, Germany) and images processed with ImageJ.

In general, IC50 refers to the concentration that gives 50% inhibition. With `COc1ccc(N(C)c2nc(C)nc3c2CCCC3)cc1` [Compound 2c, N-(4-methoxyphenyl)-N,2-dimethyl-5,6,7,8-tetrahydroquinazolin-4-amine], in test [1], the IC50 was determined as 1.6 ± 0.4 nM. For the same compound, in test [2] (10 μM), the “effect on microtubules (MTs)” value is on record as “full depolymerization of MTs”. Besides, the effect on microtubules entry in test [2] (5–10 μM) is listed as “pronounced or complete disruption of microtubules”.
